{"source": "patent EP2501821B1", "about": "“PROCESS FOR PRODUCING PRIMYCIN, PRIMYCIN COMPONENT(S), PRECURSORS AND METABOLITES THEREOF VIA FEMENTATION BY THE USE OF BACTERIAL SPECIES SACCHAROMONOSPORA AZUREA” (Pannonpharma Gyógyszergyártó Kft., priority 2009, dated 2011)", "key": {"[1]": {"system": "Staphylococcus sp.", "assay": "primycin MIC, antimicrobial spectrum re-evaluation", "format": "cell-based", "conditions": "culture collection strains", "excerpt": "(§1) In our research leading to our new findings we assayed the antimicrobial spectrum of primycin in order to re-evaluate the minimal inhibitory concentration (MIC) values known from the literature and to determine the primycin susceptibility of new isolates. Comparative test results on strains of Gram-positive bacterial species of Microbial strain culture collection of PTE TTK BI Department of General and Environmental Microbiology were in agreement with the literature data with primycin MIC values of 0.06 mg/L for Staphylococcus sp. and 0.03 mg/L for Bacillus sp. respectively. Primycin MIC values higher than 1 mg/L for any of the Gram-positive strains tested were not detected."}, "[2]": {"system": "Bacillus sp.", "assay": "primycin MIC, antimicrobial spectrum re-evaluation", "format": "cell-based", "conditions": "culture collection strains", "excerpt": "as §1"}, "[3]": {"system": "Gram-negative species", "assay": "primycin antimicrobial spectrum re-evaluation", "format": "cell-based", "excerpt": "as §1"}, "[4]": {"system": "Staphylococcus aureus (50 strains)", "conditions": "broth dilution assay; cited from earlier work"}, "[5]": {"system": "in vitro cell cultures", "conditions": "cited from earlier work"}, "[6]": {"system": "Gram-positive strains", "assay": "primycin MIC, antimicrobial spectrum re-evaluation", "format": "cell-based, Gram-positive bacterial species", "conditions": "any of the Gram-positive strains tested", "excerpt": "as §1"}, "[7]": {"system": "Saccharomonospora azurea DSM 44631", "assay": "primycin MIC (primycin tolerance)", "format": "cell-based", "conditions": "S. azurea DSM 44631", "description": "(§2) Strains were grown for seven days and once the colonies were removed and extracted, they were tested for antimicrobial production in agar diffusion tests. […] For this comparison we repeatedly used the strains of the culture collection of Department which had preliminary been tested for primycin susceptibility. Our work hypothesis was further supported by our experience that a butanol-ethanol-water mixture (in the ratio of 1:1:2 respectively) which is an effective solvent of primycin was suitable for the extraction of the antibiotic. […] Thereafter we carried out shake flask fermentations with the Saccharomonospora sp. strains suitable for the process. Production results on shake flasks of the strains tested were congruent to their cultivations on solid media. […] Table 1. Primycin tolerance and antibiotic production of Saccharomonospora isolates. *: S. azurea strains identified and registered on the name S. caesia earlier: […]"}, "[8]": {"system": "S. xinjiangensis (44391)", "assay": "primycin MIC (primycin tolerance)", "format": "cell-based", "conditions": "S. xinjiangensis DSM 44391", "description": "as §2"}, "[9]": {"system": "S. viridis (43017)", "assay": "primycin MIC (primycin tolerance)", "format": "cell-based", "conditions": "S. viridis DSM 43017", "description": "as §2"}, "[10]": {"system": "Saccharomonospora azurea (caesia) DSM 43680", "assay": "primycin MIC (primycin tolerance)", "format": "cell-based", "conditions": "S. azurea (caesia) DSM 43680", "description": "as §2"}, "[11]": {"system": "Saccharomonospora azurea (caesia) DSM 43044", "assay": "primycin MIC (primycin tolerance)", "format": "cell-based", "conditions": "S. azurea (caesia) DSM 43044", "description": "as §2"}, "[12]": {"system": "Saccharomonospora azurea (caesia) DSM 43068", "assay": "primycin MIC (primycin tolerance)", "format": "cell-based", "conditions": "S. azurea (caesia) DSM 43068", "description": "as §2"}, "[13]": {"system": "S. cyanea (44106)", "assay": "primycin MIC (primycin tolerance)", "format": "cell-based", "conditions": "S. cyanea DSM 44106", "description": "as §2"}, "[14]": {"system": "S. glauca (43769)", "assay": "primycin MIC (primycin tolerance)", "format": "cell-based", "conditions": "S. glauca DSM 43769", "description": "as §2"}, "[15]": {"system": "Gram-positive bacteria and Mycobacterium species", "conditions": "cited from earlier work"}, "[16]": {"system": "Saccharomonospora aurea strains", "assay": "primycin MIC (primycin tolerance), summary statement", "format": "cell-based", "excerpt": "As it is known that antibiotic-producing strains are less susceptible to the antibiotic produced by themselves and the primordials of the existing primycin-producing strain also was selected by primycin tolerance level to enhance their production capability, it has been suspected that lowered primycin susceptibility of Saccharomonospora azurea strains can be the outcome of the production of an antibiotic with a mode of action analogue to that of primycin. The literature concordantly states that primycin has a unique mode of action, therefore it could be suspected from our surprising findings that the antibiotic supposedly produced by these strains can be primycin itself. However, there is no literature on primycin production of Saccharomonospora azurea or any other presently accepted species of Saccharomonospora genera."}, "[17]": {"system": "one strain of Listeria monocytogenes", "conditions": "broth dilution assay; cited from earlier work"}, "[18]": {"system": "Streptococcus faecalis (76 strains)", "conditions": "broth dilution assay; cited from earlier work"}, "[19]": {"system": "strains of species belonging to Saccharomonospora genus", "assay": "primycin MIC (primycin tolerance)", "format": "cell-based"}, "[20]": {"system": "Staphylococcus epidermidis (77 strains)", "conditions": "broth dilution assay; cited from earlier work"}, "[21]": {"conditions": "in water; cited from earlier work"}}, "data": [{"substance": "primycin", "values": [{"measurement": "MIC", "setting": "[1]", "result": 0.06, "unit": "µg/mL"}, {"measurement": "MIC", "setting": "[2]", "result": 0.03, "unit": "µg/mL"}, {"measurement": "effectiveness", "setting": "[3]", "result": "did not prove to be effective"}, {"measurement": "minimal inhibitory concentrations (MIC)", "setting": "[4]", "result": "0.12 to 0.5", "unit": "µg/mL"}, {"measurement": "toxicity", "setting": "[5]", "result": "not shown to be toxic"}, {"measurement": "MIC", "setting": "[6]", "result": "≤ 1", "unit": "µg/mL"}, {"measurement": "Primycin MIC", "setting": "[7]", "result": 64, "unit": "µg/mL"}, {"measurement": "Primycin MIC", "setting": "[8]", "result": 1, "unit": "µg/mL"}, {"measurement": "Primycin MIC", "setting": "[9]", "result": "0,5 mg/L"}, {"measurement": "Primycin MIC", "setting": "[10]", "result": 64, "unit": "µg/mL"}, {"measurement": "Primycin MIC", "setting": "[11]", "result": 64, "unit": "µg/mL"}, {"measurement": "Primycin MIC", "setting": "[12]", "result": 64, "unit": "µg/mL"}, {"measurement": "Primycin MIC", "setting": "[13]", "result": 8, "unit": "µg/mL"}, {"measurement": "Primycin MIC", "setting": "[14]", "result": 8, "unit": "µg/mL"}, {"measurement": "bacteriostatic effect", "setting": "[15]", "result": "has bacteriostatic effect"}, {"measurement": "MIC", "setting": "[16]", "result": 64, "unit": "µg/mL"}, {"measurement": "minimal inhibitory concentrations (MIC)", "setting": "[17]", "result": "0.12 to 0.5", "unit": "µg/mL"}, {"measurement": "minimal inhibitory concentrations (MIC)", "setting": "[18]", "result": "0.12 to 0.5", "unit": "µg/mL"}, {"measurement": "MIC", "setting": "[19]", "result": "8 to 64", "unit": "µg/mL"}, {"measurement": "minimal inhibitory concentrations (MIC)", "setting": "[20]", "result": "0.12 to 0.5", "unit": "µg/mL"}, {"measurement": "solubility", "setting": "[21]", "result": "poorly soluble in water"}]}]}
